The target of one experiment is BACE1 (Homo sapiens, UniProt P56817). Briefly: In vitro enzymatic BACE FRET assay. The class given is biochemical. Conditions: average IC50; read-out: BACE1 Enzyme assay IC50. The procedure, abridged:
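Fluorescence (excitation 488 nm, […]) from cleavage of quenched peptide substrate (50 nM), reaction run 1 h after 1 h enzyme–inhibitor pre-incubation, then neutralised with Tris. Conditions: 0.2 nM enzyme, pH 4.2 acetate 0.05 M, 10% DMSO final, 100 uM genapol.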

For experiment [1], the system named is Aβ40 in conditioned medium of cells stably expressing Amyloid Precursor Protein (APP). Briefly: In vitro BACE cell-based assay (HEK cell assay, Aβ40 sandwich ELISA). Conditions: Homo sapiens, HEK293; average IC50; read-out: BACE1 cell assay IC50. In outline: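 IC50 was derived from percent-of-control Aβ40 against concentration, with Aβ40 quantified by time-resolved fluorescence ELISA (pAb40/6E10-biotin, 4 °C incubations). Supernatants were sampled after 24 h of compound exposure (10 points, starting 100 or 10 μM, 0.1% DMSO) of cells stably expressing APP.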
(In an ELISA, binding on a coated surface is turned into a signal by an enzyme label.)

pIC50: −log10 of the molar value.

From patent US9096615B2, “Bridged bicyclic amino thiazine dioxide compounds as inhibitors of beta-secretase and methods of use thereof” (AMGEN INC., priority 2013, dated 2015) come the findings set out here.

In general, pIC50 refers to −log10 of the IC50, conventionally taken in molar units.

Chain of BACE1 (P56817 46-501, species assumed): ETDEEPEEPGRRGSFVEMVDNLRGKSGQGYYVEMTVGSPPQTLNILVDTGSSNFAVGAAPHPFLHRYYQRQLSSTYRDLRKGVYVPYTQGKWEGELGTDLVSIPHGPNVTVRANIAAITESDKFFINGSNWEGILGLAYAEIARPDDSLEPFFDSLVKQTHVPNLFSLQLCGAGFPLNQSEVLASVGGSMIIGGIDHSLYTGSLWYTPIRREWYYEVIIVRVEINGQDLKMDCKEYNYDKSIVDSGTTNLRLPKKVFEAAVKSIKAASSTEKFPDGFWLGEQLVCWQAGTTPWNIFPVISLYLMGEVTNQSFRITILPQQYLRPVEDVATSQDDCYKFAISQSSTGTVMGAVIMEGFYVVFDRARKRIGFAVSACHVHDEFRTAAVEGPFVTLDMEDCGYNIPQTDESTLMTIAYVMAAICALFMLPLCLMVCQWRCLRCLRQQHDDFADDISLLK

For `C[C@]1(c2cc(Nc3ncnc4cc(C#N)cnc34)ccc2F)N=C(N)[C@@]2(CF)CC[C@@H]1S2(=O)=O` [Example 40, 4-((3-((1S,2R,5R)-4-amino-5-(fluoromethyl)-2-methyl-8,8-dioxido-8-thia-3-azabicyclo[3.2.1]oct-3-en-2-yl)-4-fluorophenyl)amino)pyrido[3,2-d]pyrimidine-7-carbonitrile], the pIC50 is 8.10 at BACE1 and 7.46 in experiment [1].
For `COc1cnc2c(Nc3ccc(F)c([C@@]4(C)N=C(N)[C@@]5(CF)CC[C@@H]4S5(=O)=O)c3)nccc2n1` [Example 41, N-(3-((1S,2R,5R)-4-amino-5-(fluoromethyl)-2-methyl-8,8-dioxido-8-thia-3-azabicyclo[3.2.1]oct-3-en-2-yl)-4-fluorophenyl)-2-methoxypyrido[3,4-b]pyrazin-5-amine], in that order: 8.05 and 7.82.
For `COc1cnc(C(=O)Nc2ccc(F)c([C@@]3(C)N=C(N)[C@@]4(CF)CC[C@@H]3S4(=O)=O)c2)c(C)c1` [Example 42, N-(3-((1S,2R,5R)-4-amino-5-(fluoromethyl)-2-methyl-8,8-dioxido-8-thia-3-azabicyclo[3.2.1]oct-3-en-2-yl)-4-fluorophenyl)-5-methoxy-3-methyl-2-pyridinecarboxamide] the same measures were 7.89 and 7.52.
For `C#CCOc1ccc(C(=O)Nc2ccc(F)c([C@@]3(C)N=C(N)[C@@]4(CF)CC[C@@H]3S4(=O)=O)c2)nc1` [Example 52, N-(3-((1S,2R,5R)-4-amino-5-(fluoromethyl)-2-methyl-8,8-dioxido-8-thia-3-azabicyclo[3.2.1]oct-3-en-2-yl)-4-fluorophenyl)-5-(2-propyn-1-yloxy)-2-pyridinecarboxamide], in that order: 9.00 and 8.40.
For the compound `COc1cnc2c(Nc3ccc(F)c([C@@]4(C)N=C(N)[C@@]5(CF)CC[C@@H]4S5(=O)=O)c3)nccc2c1` [Example 56, N-(3-((1S,2R,5R)-4-amino-5-(fluoromethyl)-2-methyl-8,8-dioxido-8-thia-3-azabicyclo[3.2.1]oct-3-en-2-yl)-4-fluorophenyl)-3-methoxy-1,7-naphthyridin-8-amine], the pIC50 is 7.73 on BACE1 and 7.78 in experiment [1].
On to `C#CCOc1cnc(C(=O)Nc2ccc(F)c([C@@]3(C)N=C(N)[C@@]4(CF)CC[C@@H]3S4(=O)=O)c2)c(C)n1` [Example 59, N-(3-((1S,2R,5R)-4-amino-5-(fluoromethyl)-2-methyl-8,8-dioxido-8-thia-3-azabicyclo[3.2.1]oct-3-en-2-yl)-4-fluorophenyl)-3-methyl-5-(2-propyn-1-yloxy)-2-pyrazinecarboxamide], for which the pIC50 (on BACE1; in experiment [1]) was 9.00 throughout.
For the compound `COc1cnc(C(=O)Nc2ccc(F)c([C@@]3(C)N=C(N)[C@@]4(C)CC[C@@H]3S4(=O)=O)c2)cn1` [Example 61, N-(3-((1S,2R,5R)-4-amino-2,5-dimethyl-8,8-dioxido-8-thia-3-azabicyclo[3.2.1]oct-3-en-2-yl)-4-fluorophenyl)-5-methoxy-2-pyrazinecarboxamide], the pIC50 on BACE1 is 8.30; in experiment [1], 8.70.
For `COc1cnc(C(=O)Nc2ccc(F)c([C@@]3(C)N=C(N)[C@@]4(CF)CC[C@@H]3S4(=O)=O)c2)c(C)n1` [Example 76, N-(3-((1S,2R,5R)-4-amino-5-(fluoromethyl)-2-methyl-8,8-dioxido-8-thia-3-azabicyclo[3.2.1]oct-3-en-2-yl)-4-fluorophenyl)-5-methoxy-3-methyl-2-pyrazinecarboxamide], in that order: 8.00 and 8.10.
For `C[C@]1(c2cc(NC(=O)c3ccc(Cl)cn3)ccc2F)N=C(N)[C@@]2(CF)CC[C@@H]1S2(=O)=O` [Example 77, N-(3-((1S,2R,5R)-4-amino-5-(fluoromethyl)-2-methyl-8,8-dioxido-8-thia-3-azabicyclo[3.2.1]oct-3-en-2-yl)-4-fluorophenyl)-5-chloro-2-pyridinecarboxamide] the same measures were 8.52 and 8.52.
For `COc1cnc2c(Nc3ccc(F)c([C@@]4(C)N=C(N)[C@@]5(C)CC[C@@H]4S5(=O)=O)c3)ncc(F)c2c1` [Example 78, N-(3-((1S,2R,5R)-4-amino-2,5-dimethyl-8,8-dioxido-8-thia-3-azabicyclo[3.2.1]oct-3-en-2-yl)-4-fluorophenyl)-5-fluoro-3-methoxy-1,7-naphthyridin-8-amine], in that order: 8.52 and 7.92.
On to `COc1cnc2c(Nc3ccc(F)c([C@@]4(C)N=C(N)[C@@]5(C)CC[C@@H]4S5(=O)=O)c3)nccc2n1` [Example 80, N-(3-((1S,2R,5R)-4-amino-2,5-dimethyl-8,8-dioxido-8-thia-3-azabicyclo[3.2.1]oct-3-en-2-yl)-4-fluorophenyl)-2-methoxypyrido[3,4-b]pyrazin-5-amine], for which the pIC50 at BACE1 is 8.10; in experiment [1], 8.22.
For `CC#CCOc1cnc(C(=O)Nc2ccc(F)c([C@@]3(C)N=C(N)[C@@]4(C)CC[C@@H]3S4(=O)=O)c2)cn1` [Example 82, N-(3-((1S,2R,5R)-4-amino-2,5-dimethyl-8,8-dioxido-8-thia-3-azabicyclo[3.2.1]oct-3-en-2-yl)-4-fluorophenyl)-5-(2-butyn-1-yloxy)-2-pyrazinecarboxamide] the same measures were 9.30 and 10.15.
For `Cc1cc(Cl)cnc1C(=O)Nc1ccc(F)c([C@@]2(C)N=C(N)[C@@]3(CF)CC[C@@H]2S3(=O)=O)c1` [Example 88, N-(3-((1S,2R,5R)-4-amino-5-(fluoromethyl)-2-methyl-8,8-dioxido-8-thia-3-azabicyclo[3.2.1]oct-3-en-2-yl)-4-fluorophenyl)-5-chloro-3-methyl-2-pyridinecarboxamide], in that order: 8.52 and 8.30.
For `Cc1cc(C#N)cnc1C(=O)Nc1ccc(F)c([C@@]2(C)N=C(N)[C@@]3(CF)CC[C@@H]2S3(=O)=O)c1` [Example 96, N-(3-((1S,2R,5R)-4-amino-5-(fluoromethyl)-2-methyl-8,8-dioxido-8-thia-3-azabicyclo[3.2.1]oct-3-en-2-yl)-4-fluorophenyl)-5-cyano-3-methyl-2-pyridinecarboxamide] the same measures were 8.70 and 8.70.
In the case of `COc1cnc2c(Nc3ccc(F)c([C@@]4(C)N=C(N)[C@@]5(CF)CC[C@@H]4S5(=O)=O)c3)ncnc2c1` [Example 97, N-(3-((1S,2R,5R)-4-amino-5-(fluoromethyl)-2-methyl-8,8-dioxido-8-thia-3-azabicyclo[3.2.1]oct-3-en-2-yl)-4-fluorophenyl)-7-methoxypyrido[3,2-d]pyrimidin-4-amine], the pIC50 (at BACE1; in experiment [1]) was 8.15 in each case.
As to `C[C@]1(c2cc(Nc3nccc4cc(C#N)cnc34)ccc2F)N=C(N)[C@@]2(CF)CC[C@@H]1S2(=O)=O` [Example 100, 8-((3-((1S,2R,5R)-4-amino-5-(fluoromethyl)-2-methyl-8,8-dioxido-8-thia-3-azabicyclo[3.2.1]oct-3-en-2-yl)-4-fluorophenyl)amino)-1,7-naphthyridine-3-carbonitrile], the pIC50 at BACE1 is 9.00; in experiment [1] it was 8.40.
For `Cc1cc(OC(F)F)cnc1C(=O)Nc1ccc(F)c([C@@]2(C)N=C(N)[C@@]3(CF)CC[C@@H]2S3(=O)=O)c1` [Example 102, N-(3-((1S,2R,5R)-4-amino-5-(fluoromethyl)-2-methyl-8,8-dioxido-8-thia-3-azabicyclo[3.2.1]oct-3-en-2-yl)-4-fluorophenyl)-5-(difluoromethoxy)-3-methyl-2-pyridinecarboxamide] the same measures were 8.40 and 8.70.
For `C[C@]1(c2cc(Nc3nccc4nc(OCc5ncco5)cnc34)ccc2F)N=C(N)[C@@]2(CF)CC[C@@H]1S2(=O)=O` [Example 104, N-(3-((1S,2R,5R)-4-amino-5-(fluoromethyl)-2-methyl-8,8-dioxido-8-thia-3-azabicyclo[3.2.1]oct-3-en-2-yl)-4-fluorophenyl)-2-(1,3-oxazol-2-ylmethoxy)pyrido[3,4-b]pyrazin-5-amine] the same measures were 8.70 and 9.05.
For `C[C@]1(c2cc(Nc3ncnc4cc(C(F)(F)F)cnc34)ccc2F)N=C(N)[C@@]2(C)CC[C@@H]1S2(=O)=O` [Example 106, N-(3-((1S,2R,5R)-4-amino-2,5-dimethyl-8,8-dioxido-8-thia-3-azabicyclo[3.2.1]oct-3-en-2-yl)-4-fluorophenyl)-7-(trifluoromethyl)pyrido[3,2-d]pyrimidin-4-amine] the same measures were 7.96 and 8.22.
As for `COc1cnc2c(Nc3ccc(F)c([C@@]4(C)N=C(N)[C@@]5(C)CC[C@@H]4S5(=O)=O)c3)ncnc2c1` [Example 132, N-(3-((1S,2R,5R)-4-amino-2,5-dimethyl-8,8-dioxido-8-thia-3-azabicyclo[3.2.1]oct-3-en-2-yl)-4-fluorophenyl)-7-methoxypyrido[3,2-d]pyrimidin-4-amine], the pIC50 at BACE1 was 8.22; in experiment [1], 8.52.
For the compound `C[C@]1(c2cc(Nc3nccc4nc(OCc5ncco5)cnc34)ccc2F)N=C(N)[C@@]2(C)CC[C@@H]1S2(=O)=O` [Example 140, N-(3-((1S,2R,5R)-4-amino-2,5-dimethyl-8,8-dioxido-8-thia-3-azabicyclo[3.2.1]oct-3-en-2-yl)-4-fluorophenyl)-2-(1,3-oxazol-2-ylmethoxy)pyrido[3,4-b]pyrazin-5-amine], the figures for the pIC50 (on BACE1; in experiment [1]) were 9.00 and 9.40, respectively.
